pIC50: −log10 of the molar value. Where two headings read alike, the source gives them in different places.
Columns and labels:
human P2X7 receptor = human P2X7 receptor (Homo sapiens (Human), UniProt Q99572); test: Pore permeation assay (YO PRO dye uptake); type: cell-based
[1] = molecular target: P2X7 (IL-1β release from THP-1 cells) (Homo sapiens (Human), UniProt Q99572); test: IL-1β release assay; type: cell-based
Procedure: IL-1β release assay: The activation of P2X7 by ATP leads to a fast transient activation of cells resulting in influx of Ca^2+ followed by conversion of pro-IL-1β to active IL-1β. The functional activity of P2X7 compounds was measured by the release of mature […] in the culture medium of THP-1 cells, detected by sandwich ELISA. […] THP-1 cells were harvested from the flask in 50 ml by centrifugation for 3 min at 100 g. The cells were resuspended to 2×10^5 cells/ml in medium supplemented with 0.5 μM PMA and incubated. The cells were washed and resuspended to 1.5×10^5 cells/ml in medium complemented with 10 ng/ml LPS, and the cells were primed for 4 h at 37° C., 5% CO2. After addition of 20 μL of prediluted test compounds, blank, standard and control reagents, cells were incubated for a further 20 min at 37° C. and stimulated with 0.8 mM BzATP for 30 minutes. The cells were centrifuged, supernatant was collected and the presence of mature IL-1β was detected using Dual human IL-1b kit following manufacturer's instruction. The tetrahydrobenzodiazepine analogs effectively modulated the activity of P2X7 in the cells as measured by the levels of pro-inflammatory cytokine IL-1β, which is released by the activation of P2X7 receptor.

[2] = HEK293 transfected with human P2X7, BzATP 10 uM, YO PRO dye uptake, read-out: hP2X7 IC50
[3] = THP-1 cells, LPS primed, 0.8 mM BzATP, mature IL-1β by sandwich ELISA, read-out: hTHP-1/IL-ib IC50

Sequence of human P2X7 receptor (Q99572 whole entry): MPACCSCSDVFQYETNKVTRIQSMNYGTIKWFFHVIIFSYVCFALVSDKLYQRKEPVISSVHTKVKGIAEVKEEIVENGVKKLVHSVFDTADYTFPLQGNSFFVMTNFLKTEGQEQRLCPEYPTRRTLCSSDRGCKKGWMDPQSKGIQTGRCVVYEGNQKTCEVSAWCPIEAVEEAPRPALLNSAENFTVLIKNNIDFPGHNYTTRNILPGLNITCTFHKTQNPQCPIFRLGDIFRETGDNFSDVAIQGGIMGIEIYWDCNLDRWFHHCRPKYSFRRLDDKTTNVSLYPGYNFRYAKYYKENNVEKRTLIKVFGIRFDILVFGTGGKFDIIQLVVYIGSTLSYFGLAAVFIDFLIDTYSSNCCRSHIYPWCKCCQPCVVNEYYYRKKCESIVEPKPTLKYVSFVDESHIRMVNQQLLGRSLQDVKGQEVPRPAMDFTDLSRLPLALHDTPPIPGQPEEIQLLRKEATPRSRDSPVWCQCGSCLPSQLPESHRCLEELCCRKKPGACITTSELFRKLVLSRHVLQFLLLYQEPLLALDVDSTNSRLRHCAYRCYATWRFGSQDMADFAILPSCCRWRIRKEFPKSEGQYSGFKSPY
Sequence of P2X7 (IL-1β release from THP-1 cells) (Q99572 whole entry): as above

| SMILES | pIC50 (human P2X7 receptor) | pIC50 [1] | pIC50 (human P2X7 receptor; [2]) | pIC50 [1, 3] |
| --- | --- | --- | --- | --- |
| C[C@H]1CCC[C@@](O)(CNC(=O)c2cn(CC3CCCO3)c3cccc(Cl)c23)C1 (stereo partly drawn) [Compound 140, 4-chloro-N-(((1S,3S)-1-hydroxy-3-methylcyclohexyl)methyl)-1-((tetrahydrofuran-2-yl)methyl)-1H-indole-3-carboxamide] | 7.00 to 8.00 | 7.00 to 8.00 |  |  |
| CN1CC(F)(F)C[C@H]1Cn1cc(C(=O)NCC2CCC(F)(F)CC2)c2c(Cl)cccc21 [Compound 180, (S)-4-chloro-1-((4,4-difluoro-1-methylpyrrolidin-2-yl)methyl)-N-((4,4-difluorocyclohexyl)methyl)-1H-indole-3-carboxamide] | 6.30 to 7.00 | 6.00 to 6.30 |  |  |
| O=C(NCC1CCC(F)(F)CC1)c1cn(CC(=O)N2CCCCC2)c2cccc(Cl)c12 [Compound 195, 4-Chloro-1-(2-oxo-2-piperidin-1-yl-ethyl)-1H-indole-3-carboxylic acid (4,4-difluoro-cyclohexylmethyl)-amide] | 7.00 to 8.00 | 6.30 to 7.00 |  |  |
| CN1CCCC1Cn1cc(C(=O)NCC2CCC(F)(F)CC2)c2c(Cl)cccc21 (stereo not drawn) [Compound 170, 4-chloro-N-((4,4-difluorocyclohexyl)methyl)-1-((1-methylpyrrolidin-2-yl)methyl)-1H-indole-3-carboxamide] | 7.00 to 8.00 | 7.00 to 8.00 |  |  |
| O=C(NCC1CCCC(C(F)(F)F)C1)c1cn(C2COC2)c2cccc(Cl)c12 (stereo not drawn) [Compound 56, 4-Chloro-1-oxetan-3-yl-1H-indole-3-carboxylic acid (3-trifluoromethyl-cyclohexylmethyl)-amide] | 7.00 to 8.00 | 6.30 to 7.00 |  |  |
| O=C(NCC1CC(C(F)(F)F)CC(F)(F)C1)c1cn(C2COC2)c2cccc(Cl)c12 (stereo not drawn) [Compound 91, 4-chloro-N-((3,3-difluoro-5-(trifluoromethyl)cyclohexyl)methyl)-1-(oxetan-3-yl)-1H-indole-3-carboxamide] | 7.00 to 8.00 | 6.30 to 7.00 |  |  |
| O=C(NCC1CCC(F)(F)CC1)c1cn(CC2CCCN2C2CC2)c2cccc(Cl)c12 (stereo not drawn) [Compound 197, 4-chloro-1-((1-cyclopropylpyrrolidin-2-yl)methyl)-N-((4,4-difluorocyclohexyl)methyl)-1H-indole-3-carboxamide] | 7.00 to 8.00 | 7.00 to 8.00 |  |  |
| O=C(NCC1(N2CCN(c3ccccc3)CC2)CCOCC1)c1cn(C2COC2)c2cccc(Cl)c12 [Compound 44, 4-chloro-1-(oxetan-3-yl)-N-((4-(4-phenylpiperazin-1-yl)tetrahydro-2H-pyran-4-yl)methyl)-1H-indole-3-carboxamide] | 7.00 to 8.00 | 6.30 to 7.00 |  |  |
| C[C@@H]1CCC[C@](O)(CNC(=O)c2cn(C3COC3)c3cccc(Cl)c23)C1 [Compound 93, 4-chloro-N-(((1R,3R)-1-hydroxy-3-methylcyclohexyl)methyl)-1-(oxetan-3-yl)-1H-indole-3-carboxamide] |  | 7.00 to 8.00 | > 8.00 |  |
| CN1CCOCC1Cn1cc(C(=O)NCC2CCC(F)(F)CC2)c2c(Cl)cccc21 (stereo not drawn) [Compound 184, 4-chloro-N-((4,4-difluorocyclohexyl)methyl)-1-((4-methylmorpholin-3-yl)methyl)-1H-indole-3-carboxamide] | 6.30 to 7.00 | 6.30 to 7.00 |  |  |
| O=C(NCC1CCC(F)(F)CC1)c1cn(CC2(O)CC2)c2cccc(Cl)c12 [Compound 117, 4-chloro-N-((4,4-difluorocyclohexyl)methyl)-1-((1-hydroxycyclopropyl)methyl)-1H-indole-3-carboxamide] | 7.00 to 8.00 | 6.30 to 7.00 |  |  |
| O=C(NCC1(O)CCCC1)c1cn(C2COC2)c2cccc(Cl)c12 [Compound 81, 4-Chloro-1-oxetan-3-yl-1H-indole-3-carboxylic acid (1-hydroxy-cyclopentylmethyl)-amide] | 6.30 to 7.00 | 6.00 to 6.30 |  |  |
| O=C(NCC1CCC(F)(F)CC1)c1cn(C[C@H]2CCCN2)c2cccc(Cl)c12 [Compound 154, (R)-4-chloro-N-((4,4-difluorocyclohexyl)methyl)-1-(pyrrolidin-2-ylmethyl)-1H-indole-3-carboxamide] | 7.00 to 8.00 | 7.00 to 8.00 |  |  |
| O=C(NCC1(O)CCCC(F)(F)C1)c1cn(CC2CCOC2)c2cccc(Cl)c12 (stereo not drawn) [Compound 146, 4-chloro-N-((3,3-difluoro-1-hydroxycyclohexyl)methyl)-1-((tetrahydrofuran-3-yl)methyl)-1H-indole-3-carboxamide] | 7.00 to 8.00 | 7.00 to 8.00 |  |  |
| O=C(NC[C@@]1(O)CCCC(F)(F)C1)c1cn(C[C@@H]2CCCO2)c2cccc(Cl)c12 [Compound 129] | 6.30 to 7.00 | 6.00 to 6.30 |  |  |
| O=C(NCC1CCC(F)(F)CC1)c1cn(CCO)c2cccc(C(F)(F)F)c12 [Compound 198, N-((4,4-difluorocyclohexyl)methyl)-1-(2-hydroxyethyl)-4-(trifluoromethyl)-1H-indole-3-carboxamide] | 6.30 to 7.00 | 7.00 to 8.00 |  |  |
| CC(C)N1CCCC1Cn1cc(C(=O)NCC2CCC(F)(F)CC2)c2c(Cl)cccc21 (stereo not drawn) [Compound 196, 4-chloro-N-((4,4-difluorocyclohexyl)methyl)-1-((1-isopropylpyrrolidin-2-yl)methyl)-1H-indole-3-carboxamide] | 7.00 to 8.00 | 6.30 to 7.00 |  |  |
| COCCn1cc(C(=O)NCC2(O)CCCC(F)(F)C2)c2c(Cl)cccc21 (stereo not drawn) [Compound 37, 4-chloro-N-((3,3-difluoro-1-hydroxycyclohexyl)methyl)-1-(2-methoxyethyl)-1H-indole-3-carboxamide] | 7.00 to 8.00 | 7.00 to 8.00 |  |  |
| CC(=O)N1CC[C@H]1Cn1cc(C(=O)NCC2CCC(F)(F)CC2)c2c(Cl)cccc21 [Compound 181, (S)-1-((1-acetylazetidin-2-yl)methyl)-4-chloro-N-((4,4-difluorocyclohexyl)methyl)-1H-indole-3-carboxamide] |  |  | 6.30 to 7.00 | 6.30 to 7.00 |
| O=C(NCC1CCC(F)(F)CC1)c1cn(CC2CCO2)c2cccc(Cl)c12 (stereo not drawn) [Compound 116, 4-chloro-N-((4,4-difluorocyclohexyl)methyl)-1-(oxetan-2-ylmethyl)-1H-indole-3-carboxamide] | 7.00 to 8.00 | 7.00 to 8.00 |  |  |
| O=C(NCCC1CCCC1)c1cn(C2COC2)c2cccc(Cl)c12 [Compound 82, 4-Chloro-1-oxetan-3-yl-1H-indole-3-carboxylic acid (2-cyclopentyl-ethyl)-amide] |  | 6.30 to 7.00 | > 8.00 |  |
| O=C(NCC1CCCC(C(F)(F)F)C1)c1cn(C2CCOC2)c2cccc(Cl)c12 (stereo not drawn) [Compound 112, 4-Chloro-1-(tetrahydro-furan-3-yl)-1H-indole-3-carboxylic acid (3-trifluoromethyl-cyclohexylmethyl)-amide] | 7.00 to 8.00 | 6.30 to 7.00 |  |  |
| O=C(NCC1CCC(F)(F)CC1)c1cn(CC2CC(F)(F)C2)c2cccc(Cl)c12 [Compound 127, 4-chloro-1-((3,3-difluorocyclobutyl)methyl)-N-((4,4-difluorocyclohexyl)methyl)-1H-indole-3-carboxamide] | 7.00 to 8.00 | 6.00 to 6.30 |  |  |
| CC1CC(CNC(=O)c2cn(CC3CCCN3)c3cccc(Cl)c23)CC(F)(F)C1 (stereo not drawn) [Compound 157, 4-chloro-N-((3,3-difluoro-5-methylcyclohexyl)methyl)-1-(pyrrolidin-2-ylmethyl)-1H-indole-3-carboxamide] | 7.00 to 8.00 |  |  | > 8.00 |
| O=C(NCC1CCCCC1)c1cn(C2CCOC2)c2cccc(Cl)c12 (stereo not drawn) [Compound 101, 4-chloro-N-(cyclohexylmethyl)-1-(tetrahydrofuran-3-yl)-1H-indole-3-carboxamide] | 6.30 to 7.00 | 6.00 to 6.30 |  |  |
| CC1CCCC(O)(CNC(=O)c2cn(C3COC3)c3cccc(Cl)c23)C1 (stereo not drawn) [Compound 83, 4-chloro-N-((1-hydroxy-3-methylcyclohexyl)methyl)-1-(oxetan-3-yl)-1H-indole-3-carboxamide] |  | 7.00 to 8.00 | > 8.00 |  |
| O=C(NC[C@H]1CCCC[C@H]1O)c1cn(C2COC2)c2cccc(Cl)c12 [Compound 88, cis-4-Chloro-1-oxetan-3-yl-1H-indole-3-carboxylic acid ((1R,2R)-2-hydroxy-cyclohexylmethyl)-amide] | 6.30 to 7.00 |  |  | < 6.00 |
| C[C@@H]1CCC[C@](O)(CNC(=O)c2cn(CCC(F)F)c3cccc(Cl)c23)C1 [Compound 8, 4-Chloro-1-(3,3-difluoro-propyl)-1H-indole-3-carboxylic acid ((1R,3R)-1-hydroxy-3-methyl-cyclohexylmethyl)-amide] | 7.00 to 8.00 | 6.30 to 7.00 |  |  |
| O=C(NCC1CCC(F)(F)CC1)c1cn(CC(=O)N2CCOCC2)c2cccc(Cl)c12 [Compound 190, 4-Chloro-1-(2-morpholin-4-yl-2-oxo-ethyl)-1H-indole-3-carboxylic acid (4,4-difluoro-cyclohexylmethyl)-amide] |  |  | 6.30 to 7.00 | 6.30 to 7.00 |
| O=C(NCCCC(F)(F)F)c1cn(C2COC2)c2cccc(Cl)c12 [Compound 73, 4-Chloro-1-oxetan-3-yl-1H-indole-3-carboxylic acid (4,4,4-trifluoro-butyl)-amide] | 6.30 to 7.00 | 6.00 to 6.30 |  |  |

Reference: patent US10323000B2, “Indole derivatives and their use in neurodegenerative diseases” (priority 2014, dated 2019)
